For 25 compounds, Ki, Activity and pKb results are on record in ChEMBL document CHEMBL1141597, “2-Alkyl-4-aryl-pyrimidine fused heterocycles as selective 5-HT2A antagonists” (Bioorg Med Chem Lett, 2008).

The source made the active and inactive calls. No cut-off for these calls is given here.

The target of assay [1] is T1, 5-hydroxytryptamine receptor 2A (Homo sapiens, UniProt P28223). Kind of assay: Displacement of [3H]ketanserin from human recombinant 5HT2A receptor expressed in mouse NIH3T3 cells. The format is cell-based.
Assay [2] deals with T2, 5-hydroxytryptamine receptor 2B (Homo sapiens, UniProt P41595). The experiment in a line: Displacement of [3H]mesulergine from human recombinant 5HT2B receptor expressed in CHO cells. The format is cell-based. In general terms: Displacement assays read how much labelled ligand stays bound in the presence of the test substance.
The target in assay [3] is T3, 5-hydroxytryptamine receptor 2C (Homo sapiens, UniProt P28335).
T3 sequence (P28335 whole entry): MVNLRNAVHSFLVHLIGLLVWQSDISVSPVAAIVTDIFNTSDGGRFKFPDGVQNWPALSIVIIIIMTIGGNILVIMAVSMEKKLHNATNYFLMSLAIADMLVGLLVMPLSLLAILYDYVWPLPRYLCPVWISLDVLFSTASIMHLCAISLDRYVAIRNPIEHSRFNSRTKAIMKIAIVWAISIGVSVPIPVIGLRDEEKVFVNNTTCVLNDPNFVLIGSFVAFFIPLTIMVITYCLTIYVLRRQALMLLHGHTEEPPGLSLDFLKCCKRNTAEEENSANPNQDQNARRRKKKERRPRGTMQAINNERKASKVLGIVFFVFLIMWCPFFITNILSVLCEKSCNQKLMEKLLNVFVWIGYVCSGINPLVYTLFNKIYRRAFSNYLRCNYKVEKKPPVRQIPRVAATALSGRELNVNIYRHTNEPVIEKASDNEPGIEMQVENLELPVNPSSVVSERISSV
Kind of assay: Displacement of [3H]mesulergine from human recombinant 5HT2C receptor expressed in CHO cells. The format is cell-based.

The target of assay [4] is T2, 5-hydroxytryptamine receptor 2B. The experiment in a line: Antagonist activity at human recombinant 5HT2B receptor expressed in CHO cells assessed as increase in calcium levels. Type of assay: functional, cell-based.
Assay [5] addresses T1, 5-hydroxytryptamine receptor 2A. Conditions: NIH3T3.
Description: Antagonist activity at human recombinant 5HT2A receptor expressed in mouse NIH3T3 cells assessed as increase in calcium levels
The target is the same in assay [6]. The experiment in a line: Binding affinity at 5HT2A receptor.
The target in assay [7] is T2, 5-hydroxytryptamine receptor 2B. Kind of assay: Binding affinity at 5HT2B receptor.
Assay [8] has as its target T3, 5-hydroxytryptamine receptor 2C. Kind of assay: Binding affinity at 5HT2C receptor.

T2 sequence (P41595 whole entry): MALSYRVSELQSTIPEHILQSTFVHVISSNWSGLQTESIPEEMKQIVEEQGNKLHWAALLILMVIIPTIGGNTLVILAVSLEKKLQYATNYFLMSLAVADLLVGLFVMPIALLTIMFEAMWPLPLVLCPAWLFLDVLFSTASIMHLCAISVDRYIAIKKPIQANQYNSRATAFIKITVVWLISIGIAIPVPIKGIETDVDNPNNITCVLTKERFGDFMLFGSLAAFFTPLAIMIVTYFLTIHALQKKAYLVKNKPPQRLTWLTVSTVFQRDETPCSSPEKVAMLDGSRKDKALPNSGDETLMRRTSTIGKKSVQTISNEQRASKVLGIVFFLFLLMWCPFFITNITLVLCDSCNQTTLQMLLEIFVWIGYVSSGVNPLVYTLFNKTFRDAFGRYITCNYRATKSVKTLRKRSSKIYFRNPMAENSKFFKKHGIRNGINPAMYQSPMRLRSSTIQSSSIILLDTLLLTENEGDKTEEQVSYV
T1 sequence (P28223 whole entry): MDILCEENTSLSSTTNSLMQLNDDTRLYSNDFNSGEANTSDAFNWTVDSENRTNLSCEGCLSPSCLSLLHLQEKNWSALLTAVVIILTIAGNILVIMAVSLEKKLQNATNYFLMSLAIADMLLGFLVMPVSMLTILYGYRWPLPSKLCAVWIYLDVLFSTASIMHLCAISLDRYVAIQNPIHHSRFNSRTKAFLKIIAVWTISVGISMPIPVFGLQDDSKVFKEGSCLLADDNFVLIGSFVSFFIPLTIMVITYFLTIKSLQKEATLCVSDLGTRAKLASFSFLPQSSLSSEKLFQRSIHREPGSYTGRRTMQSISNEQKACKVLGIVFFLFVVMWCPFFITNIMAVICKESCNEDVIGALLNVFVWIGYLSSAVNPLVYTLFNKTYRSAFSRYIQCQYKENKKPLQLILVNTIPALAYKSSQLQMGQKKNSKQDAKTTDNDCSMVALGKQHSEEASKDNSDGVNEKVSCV

For the compound `Fc1ccc(-c2nc(Cc3ccccc3)nc3c2CCNCC3)cc1`, in assay [1], the Ki was 0.6 nM.

`Cc1nc2c(c(-c3ccc(Cl)cc3)n1)CCNCC2`: the Ki in assay [1] came out at 1200 nM; in assay [2], 270 nM; in assay [3], 5000 nM.

`Fc1ccc(-c2nc(-c3ccccc3)nc3c2CNCC3)cc1`: the Ki in assay [1] worked out at 50 nM.

Turning to `CC(C)(C)c1nc2c(c(-c3ccc(F)cc3)n1)CNCC2`, the Ki in assay [1] was 5 nM; in assay [3], 100 nM.

On to `Fc1ccc(Cc2nc3c(c(-c4ccc(F)cc4)n2)CNCC3)cc1`, for which, in assay [1], the Ki amounted to 13 nM. Moreover, in assay [4], the outcome was inactive. The compound also showed a pKb in assay [5] of 7.1.

In the case of `CN(C)CCO/N=C(/C=C/c1ccc(O)cc1)c1ccccc1F`, in assay [4], the outcome was inactive.

In the case of `Fc1ccc(-c2nc(C3CCC3)nc3c2CNCC3)cc1`, the results for the Ki in assay [1], in assay [2] and in assay [3] were 11 nM, 210 nM and 410 nM, respectively.

Take `Fc1ccc(-c2nc(Cc3ccccc3)nc3c2CCCNC3)cc1`: the figures for the Ki in assay [1] and in assay [3] were 8.8 nM and 150 nM, respectively.

Regarding `Cc1nc2sccn2c(=O)c1CCN1CCC(=C(c2ccc(F)cc2)c2ccc(F)cc2)CC1`, the outcome in assay [4] was inactive.

For `Cc1nc2n(c(=O)c1CCN1CCC(c3noc4cc(F)ccc34)CC1)CCCC2`, in assay [4], the outcome was inactive.

`Fc1ccc(-c2nc(C3CCCC3)nc3c2CNCC3)cc1`: the Ki in assay [1] was 2.2 nM; in assay [2], 220 nM; in assay [3], 110 nM. Besides, the result in assay [4] was inactive. Also, in assay [5], the negative-log Kb (pKb) turned out to be 8.1.

On to `FC(F)(F)c1ccc(-c2nc(Cc3ccccc3)nc3c2CCNCC3)cc1`, for which, in assay [1], the Ki stood at 0.8 nM.

As for `COc1cccc(C(O)C2CCN(CCc3ccc(F)cc3)CC2)c1OC` (single isomer, unassigned), in assay [4], the outcome was inactive.

In the case of `N#Cc1ccc(-c2nc(C3CCCC3)nc3c2CCNCC3)cc1`, the Ki amounted to 34 nM in assay [1], 20 nM in assay [2] and 460 nM in assay [3].

Take `Fc1ccc(-c2nc(C3CC3)nc3c2CNCC3)cc1`: the results for the Ki in assay [1] and in assay [3] were 40 nM and 5000 nM, respectively.

For the compound `CC(C)c1nc2c(c(-c3ccc(F)cc3)n1)CCNCC2`, in assay [1], the Ki turned out to be 4 nM.

Regarding `Fc1ccc(-c2nc(Cc3ccccc3)nc3c2CCNC3)cc1`, the figures for the Ki in assay [1] and in assay [2] were 9 nM and 310 nM, respectively.

For `CCN(CC)c1nc2c(c(-c3ccc(C)cc3)n1)CNCC2`, the results for the inhibition constant (Ki) in assay [6], in assay [7] and in assay [8] were 20 nM, 70 nM and 300 nM, respectively.

`Fc1ccc(-c2nc(Cc3ccccc3)nc3c2CNCCC3)cc1`: the Ki in assay [2] turned out to be 10000 nM; in assay [3], 5000 nM.

`COc1ccc(-c2nc(C3CCCC3)nc3c2CCNCC3)cc1`: the Ki in assay [1] worked out at 11 nM; in assay [2], 4.8 nM; in assay [3], 120 nM.

Turning to `Fc1ccc(-c2nc(Cc3ccccc3)nc3c2CNCC3)cc1`, the inhibitory constant (Ki) in assay [1] is 20 nM; in assay [2], 2500 nM; in assay [3], 400 nM.

Take `Cc1ccc(-c2nc(C3CCCC3)nc3c2CCNCC3)cc1`: the Ki in assay [3] came to 23 nM.

As to `Cc1ccc(-c2nc(Cc3ccccc3)nc3c2CCNCC3)cc1`, the Ki worked out at 0.4 nM in assay [1] and 15 nM in assay [3].

For `Fc1ccc(Cc2nc3c(c(-c4ccc(F)cc4)n2)CCNCC3)cc1`, in assay [1], the Ki was 0.7 nM. In addition, the result in assay [4] was inactive. The compound further gave a pKb in assay [5] of 8.2.

`Fc1ccc(-c2nc(C3CCCC3)nc3c2CCNCC3)cc1`: the Ki in assay [1] was 13 nM.

Usually Ki stands for a dissociation constant, usually derived from enzyme kinetics or from competition with a known ligand. What is called pKb is −log10 of the Kb, conventionally taken in molar units. Low values mean a high Kb, high ones a low Kb.
